According to patent US20030134859A1 (SANKYO COMPANY, LIMITED, priority 2000, published 2003):

What was measured:
[1] = system: Mouse preadipocyte strain 3T3-L1; test: Inhibition of differentiation as an indication of acetic acid uptake; assay type: cell-based; details: control (0.01% dimethylsulfoxide) = 100%; for activity at 0.1 µM: Mus musculus, 3T3-L1, 0.1 μM test substance, read-out: Rate of Uptake (%) of [2-14C] acetic acid; for Rate of Uptake (%) of [2-14C] acetic acid: 0.1 μM test substance
How it was run: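 Differentiation is indexed by 1 hr [2-14C]acetic acid incorporation, measured by scintillation counting and given as uptake relative to 0.01% DMSO control (100%). Mouse 3T3-L1 preadipocytes, pre-grown 10 days, received 0.1 μM test substance throughout a 4-day insulin/IBMX/dexamethasone induction, followed by 2 days' maintenance culture.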

[2] = system: human colon cancer cells COL-2-JCK; test: Inhibition of colony forming activity in human colon cancer cells; assay type: cell-based; details: 1 μM test compound, 10 days, sum of colony areas vs control; for inhibition at 1 µM: Homo sapiens, 240 h, read-out: Inhibition Rate (%) against the colony forming activity
Procedure: For the medium to culture the human colon cancer cells, D-MEM/F-12 medium containing inactivated bovine fetal serum at a concentration of 10% (GIBCO) was used. The human colon cancer cells COL-2-JCK (purchased from Institute for Experimental Animals) grown in mass formation in a plastic dish for the cell culture with an inner diameter of 100 mm were stripped off from the dish by using EDTA (ethylenediaminetetraacetic acid) and 0.05% trypsin solution. Then, a cell dilution solution was prepared at a concentration of 100 cells/mL solution which was diluted with the medium (D-MEM/F-12).
Three (3) mL of the cell solution were inoculated in each well of a 6-well plastic plate (300 cells/well). The test compound that was dissolved in DMSO solution so as to be a final concentration of 1 μM of the test compound and that of DMSO solution of 0.1% was added to each well. DMSO solution alone was added into the well for the control so as to be a final concentration of 0.1%.
The cells in each well were cultured for 10 days at 37° C. in the presence of 5% CO2. After the culturing was finalised, each well was washed once with Dulbecco-phosphate-buffer-saline solution (bivalent anion). Then, 1.5 ml of neutral buffered formalin solution containing 0.02% crystal violet was added to each well and the plate was kept stationary for 5 min for fixation and staining the cells. After fixation and staining, the cells were washed with water and were air-dried. Then the sum of the colony area (mm^2) of the stained cancer cells was calculated by using an image analyzer PCA-11 (SystemScience). From the calculated values, the inhibition rate (%) of the compound against the colony forming activity was obtained based on the following equation.
Inhibition Rate (%) against the colony forming activity=(1−A/B)×100
A: Sum of Colony Areas in the Group Treated with 1 μM of the Test Compound
B: Sum of Colony Areas in the Control Group

Rat white adipocytes [3] = test: Stimulation of differentiation of the adipocytes (Oil Red O); assay type: cell-based; details: Rattus norvegicus, Adipocyte, 120 h, 100 nM test compound; 5 days; Oil Red O ABS550; control = 100%, blank = 0%; Table 7; read-out: Rate of Differentiation (%)
How it was run: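 Oil Red O lipid staining, absorbance 550 nm after DMSO extraction, quantified differentiation of rat white adipocytes exposed 5 days to compound (final 100 nM, 0.1% DMSO) in differentiation medium. Percent differentiation normalised between cell-free blank (0%) and DMSO control (100%).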

human PPAR γ 2 = target: T1, human PPAR γ 2 (Homo sapiens, UniProt P37231); test: PPAR γ transcriptional activity, luciferase reporter, test compound alone; assay type: cell-based; details: concentration indicating Emax/2, MG63 cells transfected with pSG5-hPPARg and pGV-P2-PPRE, 24 hr
T1 construct: expressed in transfected cells; host or cells: human osteosarcoma MG63, transiently co-transfected with pSG5-hPPARg and the reporter pGV-P2-PPRE
T1 sequence (P37231 1-505): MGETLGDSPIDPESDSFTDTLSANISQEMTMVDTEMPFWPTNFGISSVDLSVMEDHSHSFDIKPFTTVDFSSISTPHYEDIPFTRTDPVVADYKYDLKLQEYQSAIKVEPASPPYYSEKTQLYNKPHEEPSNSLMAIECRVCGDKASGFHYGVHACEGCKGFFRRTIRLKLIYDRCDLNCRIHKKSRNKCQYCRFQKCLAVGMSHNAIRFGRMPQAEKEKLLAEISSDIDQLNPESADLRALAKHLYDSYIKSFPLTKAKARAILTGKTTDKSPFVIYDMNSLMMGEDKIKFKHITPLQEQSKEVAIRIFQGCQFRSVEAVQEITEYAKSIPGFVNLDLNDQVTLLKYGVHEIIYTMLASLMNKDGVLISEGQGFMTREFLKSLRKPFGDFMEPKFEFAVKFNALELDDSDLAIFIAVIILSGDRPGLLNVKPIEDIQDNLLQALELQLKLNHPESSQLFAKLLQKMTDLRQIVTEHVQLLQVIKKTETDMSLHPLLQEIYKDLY
Procedure: The primers of the polymerase chain reaction (hereinafter “PCR”) were designed according to the gene sequence of human PPAR γ 2 (GenBANK accession No. D83233). In order to insert the genes into the BamHI site of the plasmid pSG5 ([…] CLONING SYSTEMS), Bgl II sites were added upstream and downstream of the genes encoding human PPAR γ 2 protein. For this, 2 kinds of polynucleotides shown in the sequence numbers 1 and 2 in the sequence table described below (hereinafter “S1” and “AS1”, respectively) were used as PCR primers.
In order to determine transcriptional activity via PPAR γ, 2 kinds of polynucleotides represented in sequence numbers 3 and 4 in the sequence table described below (hereinafter “S2” and “AS2”, respectively) were used for construction of the reporter plasmid having PPAR responsive element. The DNA fragment inserted was designed based on the gene sequence in the promoter region of rat acylCo-A oxidase (J. D. Tugwood, EMBO J., 11 (2), pp433-439 (1992)). For insertion of the DNA fragment into the reporter plasmid pGV-P2 (TOYO INK MFG CO., LTD), a NheI site and an XhoI site were added to the S2 and AS2, respectively.
Using cDNA library (Clontech) derived from human adipose tissue as a template, DNA oligomers S1 and AS1 that were synthesized in the procedure 1 as primers and Ex-Taq™ (TAKARA BIO INC.) as a thermostable DNA polymerase-PCR was carried out. As a result of the PCR, the c.a. 1500 bps DNA fragments were amplified. Each cycle consisted of incubation at 94° C. for 1 min for denaturation of the template, then at 55° C. for 30 sec for annealing of DNA oligomers the PCR primer, and then at 72° C. for 30 sec for extension of the chain. The obtained DNA fragments with approximately 1500 base pairs were digested at the Bgl II sites and were inserted into BamHI sites of pSG5. Thus a human PPAR γ expression plasmid named pSG5-hPPAR g was obtained. The nucleotide sequence of the inserted DNA fragment was confirmed to be identical sequence to the human PPAR γ 2 reported by the dideoxy method.
Vector pGV-P2 digestion products was prepared by digestion using the restriction enzymes, NheI and XhoI, and purified by 1.0% agarose-gel electrophoresis. The DNA oligomers, S2 and AS2 obtained in Procedure 2, were mixed together and were incubated in a hot bath at 94° C. for 1 min. After the annealing was partially broken, they were further incubated at 25° C. for 1 hr. Thus double-stranded DNA with annealing of S2 and AS2 was formed. Then, the terminus of the double-stranded DNA with annealing of S2 and AS2 was phosphorylated with DNA polynucleotide kinase (TOYOBO CO., LTD). After that, it was ligated to the pGV-P2 digestion products which were prepared previously using the NheI site and XhoI site. Thus the reporter plasmid pGV-P2-PPRE was obtained.
Using the plasmid obtained by the procedures 3 and 4, transformation of Escherichia coli HB-101 strain was carried out by conventional methods. HB-101 strain having the plasmid was incubated in L-broth medium (containing 10 g of trypton (Difco), 5 g of yeast extract (Difco), 5 g of sodium chloride in 1 L of aqueous solution) containing 100 μg/ml of ampicillin at 37° C. for 17 hrs. Then, each plasmid was purified by the alkaline-SDS method and employed for the gene transfection to mammalian cells. After mixing the pSG5-hPPARg, PGV-P2-PPRE and LipofectAMINE reagent (GIBCO BRL), the human osteosarcoma MG63 was transiently transfected. Then the cells were recovered. The recovered cells were plated on a 96-well plate so as to be 30,000 cells/well and cultured in a CO2 incubator (NAPCO) at 37° C. for 24 hr under the condition of 5% CO2, 95%-RH.
Various concentrations of the test compound alone were added to culturing medium of the cells prepared in the Procedure 5. After 24 hr of culturing, LT2.0 (TOYO INK MFG CO., LTD), a luciferase substrate, was added to the medium free culture plate. […]

leptin production = test: Enhancing activity for leptin production in adipocytes (ELISA); assay type: cell-based, rat; details: 24 hr, leptin concentration as % of control group
How it was run: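 Leptin release, quantified by rat leptin ELISA, expressed as percent of 0.1% DMSO control after 24 h at 37 °C. Cells were floating adipocytes isolated by collagenase digestion of epididymal fat from male 6-week Wistar Imamichi rats; compound tested at 1 nM–1 µM final.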

Rat white adipocytes [4] = test: Inhibition of the differentiation of adipocytes (Oil Red O); assay type: cell-based; details: Rattus norvegicus, Adipocyte, 120 h, 100 nM test compound; 5 days; Oil Red O ABS550; control = 100%, blank = 0%; Table 3; read-out: Rate of Differentiation (%)
How it was run: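 Rat white preadipocytes, 5,000 cells/well, given differentiation medium with compound at 100 nM final (0.1% DMSO) for 5 days at 37 °C. Lipid stained with Oil Red O, eluted in DMSO, read at 550 nm; differentiation % relative to DMSO control (100%) and blank (0%).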

Structure (SMILES)	EC50 (human PPAR γ 2) [µM]	activity at 0.1 µM [1] [%]	inhibition at 1 µM [2] [%]	further results
Cc1cccc(NC(=O)c2cc([N+](=O)[O-])ccc2Cl)c1 [Example 11, N-(3-Methylphenyl)-(2-chloro-5-nitrophenyl)carboxamide]		67.3	15	
CCc1cccc(NC(=O)c2cc([N+](=O)[O-])ccc2Cl)c1 [Example 14, N-(3-Ethylphenyl)-(2-chloro-5-nitrophenyl)carboxamide]		82.1	16	activity at 0.1 µM (Rat white adipocytes [3]): 121%
CC(C)(C)OC(=O)Nc1ccc(NC(=O)c2cc([N+](=O)[O-])ccc2Cl)cc1 [Example 45, N-[4-(tert-Butyloxycarbonylaminophenyl)]-(2-chloro-5 nitrophenyl)carboxamide]				Rate of Uptake (%) of [2-14C] acetic acid [1]: 68.9%; Inhibition Rate (%) against the colony forming activity [2]: 32.0%
Cc1cc(NS(=O)(=O)c2ccc(NC(=O)c3cc([N+](=O)[O-])ccc3Cl)cc2)nc(C)n1 [Example 98, N-[[4-(2,6-Dimethylpyrimidin-4-yl)aminosulfonyl]phenyl]-(2-chloro-5-nitrophenyl)carboxamide]				Facilitating activity to produce leptin (leptin production; 1 μM): 117.0%; Facilitating activity to produce leptin (leptin production; 100 nm): 110.1%; Rate of Uptake (%) of [2-14C] acetic acid [1]: 89.1%; Inhibition Rate (%) against the colony forming activity [2]: 25.0%
O=C(Nc1ccc(S(=O)(=O)Nc2ccccn2)cc1)c1cc([N+](=O)[O-])ccc1Cl [Example 100, N-[4-[(Pyridin-2-yl)aminosulfonyl]phenyl]-(2-chloro-5-nitrophenyl)carboxamide]			50	
COC(=O)c1cccc(NC(=O)c2cc([N+](=O)[O-])ccc2Cl)c1 [Example 143, Methyl 3-(2-chloro-5-nitrobenzoylamino)benzoate]		60.1	25	activity at 0.1 µM (Rat white adipocytes [4]): 84.9%

Now from value to compound, other results behind:

EC50 (human PPAR γ 2) [µM]	Structure (SMILES)	activity at 0.1 µM [1] [%]	inhibition at 1 µM [2] [%]	further results
0.0051	Cc1cnc(NC(=O)c2cc([N+](=O)[O-])ccc2Cl)c(C)c1 [Example 74, N-(3,5-Dimethylpyriridin-2-yl)-(2-chloro-5-nitrophenyl)carboxamide]			Rate of Uptake (%) of [2-14C] acetic acid [1]: 70.4%
0.12	COC(=O)c1cscc1NC(=O)c1cc([N+](=O)[O-])ccc1Cl [Example 76, N-(4-Methoxycarbonylthiophen-3-yl)-(2-chloro-5-nitrophenyl)carboxamide]	54.3		
0.068	CCOC(=O)c1c(NC(=O)c2cc([N+](=O)[O-])ccc2Cl)sc2c1CCCC2 [Example 79, N-[3-Carboethoxy-4,5,6,7-tetrahydrobenzo[b]thiophen-2-yl]-(2-chloro-5-nitrophenyl)carboxamide]	41.5		
0.0088	O=C(Nc1ccc(S(=O)(=O)Nc2ccc3cn[nH]c3c2)cc1)c1cc([N+](=O)[O-])ccc1Cl [Example 103]	72.1		
0.088	CCCCNC(=O)NS(=O)(=O)c1ccc(NC(=O)c2cc([N+](=O)[O-])ccc2Cl)cc1 [Example 107, N-[4-(Butylaminocarbonylaminosulfonyl)phenyl]-(2-chloro-5-nitrophenyl)carboxamide]	71.3		
0.031	O=C(Nc1ccc(O)cc1)c1cc([N+](=O)[O-])ccc1Cl [Example 193, N-(4-Hydroxyphenyl)-(2-chloro-5-nitrophenyl)carboxamide]			activity at 0.1 µM (Rat white adipocytes [4]): 62.4%
